Experimental data taken from US12473594B2, “Chemical tagging-based method for modified nucleoside sequencing, enrichment, and measurement” (PEKING UNIVERSITY, priority 2019, dated 2025).

Assay: Half-life of DTT-6-A and hm^6A in aqueous solutions with different pH values
Type: physicochemical
Conditions: aqueous solution, neutral environment
Description: In order to study whether the stability of product (DTT-6-A) produced by the reaction of hm^6A and DTT was improved compared with hm^6A, half-life of DTT-6-A in aqueous solutions with different pH values was measured.

- half-life: 2 h
Structure (SMILES): OCNc1ncnc2c1ncn2[C@@H]1O[C@H](CO)[C@@H](O)[C@H]1O [hm^6A, N^6-hydroxymethyl adenine nucleoside]
